Data as given in article PMC6835763, “Influence of Short Cationic Lipopeptides with Fatty Acids of Different Chain Lengths on Bacterial Biofilms Formed on Polystyrene and Hydrogel Surfaces” (Pharmaceutics, 2019).
Where a SMILES comes first, the peptide text is derived from it. Bridges are numbered along the chain shown (N, C = ends). Roman numbers before positions name the chains, in order. The star is where a group is joined. Palmitoyl = CCCCCCCCCCCCCCCC(=O)*; Myristoyl = CCCCCCCCCCCCCC(=O)*; Lauroyl = CCCCCCCCCCCC(=O)*

System: not listed separately
Assay: RP-HPLC retention to evaluate the hydrophobicity of lipopeptides
Format: physicochemical
Settings: chromatographic, Luna C18(2) 3.0 × 100 mm, 5.0 µm, linear 20–80% acetonitrile in water over 10 min, 0.1% formic acid, 0.5 mL/min, UV 214 nm, used to evaluate hydrophobicity
Description: The crude peptide was lyophilized and subsequently purified by RP-HPLC. The purifications were carried out on a Phenomenex Gemini-NX C18 column (21.20 × 100 mm, 5.0 µm particle size, and 110 Å pore size). Acetonitrile and water, both containing 0.1% of TFA, were used as the mobile phase. UV detection at 214 nm was used. The crude peptides were eluted with a linear 20–80% acetonitrile gradient in deionized water over 60 min at a flow rate of 10.0 mL/min. The purity and identity of the peptides were confirmed with LC-MS analysis. A Waters Alliance e2695 RP-HPLC system (Waters, Milford, MA, USA) with Waters 2998 PDA (Waters, Milford, MA, USA) and Acquity QDA detectors (Empower®3 software, Database Version 7.21.00.00) was used. All analyses were carried out on a Phenomenex, Luna C18(2) column (3.0 × 100 mm, 5.0 µm particle size, 100 Å pore size). The samples were analyzed with a linear 20–80% acetonitrile gradient in deionized water over 10 min at a flow rate of 0.5 mL/min with UV detection at 214 nm. Both eluents contained 0.1% (v/v) of formic acid. The pure fractions (>95%, by HPLC analysis) were collected and lyophilized. The retention time and percentage of ACN (%) at which each peptide was eluted are included in Table 1 to evaluate the hydrophobicity of lipopeptides. The identity of all compounds was confirmed using mass spectrometry (Waters Alliance e2695 system with Acquity QDA detector, Waters, Milford, MA, USA) with electrospray ionization in positive ion mode (ESI-MS). In this mode, a proton is attached to basic moieties (amine groups, guanidine groups). The theoretical mass of the peptide was calculated and then expected ions (m/z—mass to charge ratio) were compared to measured m/z. The results are presented in Table 1, and mass spectra are presented in the Supplementary Materials.

Going from `CCCCCCCCCCCC(=O)N[C@@H](CCCCN)C(=O)N[C@@H](CCCCN)C(=O)N[C@@H](CSSC[C@H](NC(=O)[C@H](CCCCN)NC(=O)[C@H](CCCCN)NC(=O)CCCCCCCCCCC)C(N)=O)C(N)=O` [Lipopeptide 1, C12-KKC-NH2] (I: Lauroyl-Lys-Lys-Cys-NH2 / II: Lauroyl-Lys-Lys-Cys-NH2; disulfide I:3-II:3) to (C10)2-KKKK-NH2 [Lipopeptide 9], the “% ACN at which the peptide was eluted” value rises from 38.6% to 39.6%.

First: CCCCCCCCCCCCCC(=O)N[C@@H](CCCCN)C(=O)N[C@@H](CCCCN)C(=O)N[C@@H](CSSC[C@H](NC(=O)[C@H](CCCCN)NC(=O)[C@H](CCCCN)NC(=O)CCCCCCCCCCCCC)C(N)=O)C(N)=O [Lipopeptide 3, C14-KKC-NH2] (I: Myristoyl-Lys-Lys-Cys-NH2 / II: Myristoyl-Lys-Lys-Cys-NH2; disulfide I:3-II:3)
Second: CCCCCCCCCCCCCCCC(=O)N[C@@H](CCCCN)C(=O)N[C@@H](CCCNC(=N)N)C(N)=O [Lipopeptide 8, C16-KR-NH2] (Palmitoyl-Lys-Arg-NH2)
The “% ACN at which the peptide was eluted” value of the first is lower: 43.3% for the first, 44.3% for the second.

Compared with `CCCCCCCCCCCCCCCC(=O)N[C@@H](CCCCN)C(=O)N[C@@H](CCCCN)C(=O)N[C@@H](CCCCN)C(N)=O` [Lipopeptide 7, C16-KKK-NH2], `CCCCCCCCCCCCCC(=O)N[C@@H](CCCCN)C(=O)N[C@@H](CCCNC(=N)N)C(N)=O` [Lipopeptide 4, C14-KR-NH2] (Myristoyl-Lys-Arg-NH2) is higher in “% ACN at which the peptide was eluted” value: 37.9% for the first, 39.7% for the second.

In the case of `CCCCCCCCCCCCCCCC(=O)N[C@@H](CCCCN)C(=O)NCC(=O)N[C@@H](CCCCN)C(N)=O` [Lipopeptide 5, C16-KGK-NH2] (Palmitoyl-Lys-Gly-Lys-NH2), the “% ACN at which the peptide was eluted” value is reported as 43.7%.

`CCCCCCCCCCCC(=O)N[C@@H](CCCCN)C(=O)N[C@@H](CCCCN)C(=O)N[C@@H](CSSC[C@H](NC(=O)[C@H](CCCCN)NC(=O)[C@H](CCCCN)NC(=O)CCCCCCCCCCC)C(N)=O)C(N)=O` [Lipopeptide 1, C12-KKC-NH2] (I: Lauroyl-Lys-Lys-Cys-NH2 / II: Lauroyl-Lys-Lys-Cys-NH2; disulfide I:3-II:3) and (C10)2-KKKK-NH2 [Lipopeptide 9] are within 1.5-fold of each other in “tR' (adjusted retention time)” value: 3.10 min for the first, 3.27 min for the second.

`CCCCCCCCCCCCCC(=O)N[C@@H](CCCCN)C(=O)N[C@@H](CCCCN)C(=O)N[C@@H](CSSC[C@H](NC(=O)[C@H](CCCCN)NC(=O)[C@H](CCCCN)NC(=O)CCCCCCCCCCCCC)C(N)=O)C(N)=O` [Lipopeptide 3, C14-KKC-NH2] (I: Myristoyl-Lys-Lys-Cys-NH2 / II: Myristoyl-Lys-Lys-Cys-NH2; disulfide I:3-II:3) and `CCCCCCCCCCCCCCCC(=O)N[C@@H](CCCCN)C(=O)N[C@@H](CCCNC(=N)N)C(N)=O` [Lipopeptide 8, C16-KR-NH2] (Palmitoyl-Lys-Arg-NH2) are within 1.5-fold of each other in “tR' (adjusted retention time)” value: 3.88 min for the first, 4.06 min for the second.

`CCCCCCCCCCCCCCCC(=O)N[C@@H](CCCCN)C(=O)N[C@@H](CCCCN)C(=O)N[C@@H](CCCCN)C(N)=O` [Lipopeptide 7, C16-KKK-NH2] and `CCCCCCCCCCCCCC(=O)N[C@@H](CCCCN)C(=O)N[C@@H](CCCNC(=N)N)C(N)=O` [Lipopeptide 4, C14-KR-NH2] (Myristoyl-Lys-Arg-NH2) are within 1.5-fold of each other in “tR' (adjusted retention time)” value: 2.98 min for the first, 3.29 min for the second.

With `CCCCCCCCCCCCCCCC(=O)N[C@@H](CCCCN)C(=O)NCC(=O)N[C@@H](CCCCN)C(N)=O` [Lipopeptide 5, C16-KGK-NH2] (Palmitoyl-Lys-Gly-Lys-NH2) the “tR' (adjusted retention time)” value was 3.95 min.

System: gram-positive strains
Assay: MIC, broth microdilution, range over strains
Format: cell-based
Settings: range over the gram-positive strains, liquid culture
Description: The MICs of synthetic lipopeptides and conventional antimicrobials were determined using the broth microdilution method according to the Clinical and Laboratory Standard Institute (CLSI) guidelines on reference strains. […] The PS were incubated under aerobic conditions at 37 °C for 18 h. The MIC (μg/mL) was assumed as the lowest concentration of the compound that inhibited the growth of the microorganisms. All experiments were performed in triplicate and included the growth and sterility controls.

In the case of `CCCCCCCCCCCC(=O)N[C@@H](CCCCN)C(=O)N[C@@H](CCCCN)C(=O)N[C@@H](CSSC[C@H](NC(=O)[C@H](CCCCN)NC(=O)[C@H](CCCCN)NC(=O)CCCCCCCCCCC)C(N)=O)C(N)=O` [Lipopeptide 1, C12-KKC-NH2] (I: Lauroyl-Lys-Lys-Cys-NH2 / II: Lauroyl-Lys-Lys-Cys-NH2; disulfide I:3-II:3), the “concentrations inhibiting growth of gram-positive strains (MIC range)” value is reported as 2 to 8 µg/mL.
